Biological target: T1, TvmNAG2 (Trichoderma virens, UniProt G9MXZ5)
T1 construct: gene NAG2; mature (signal peptide removed)
Assay: p-nitrophenol release at […] nm, Lineweaver-Burk
Assay type: biochemical
Settings: standard assay: 50 mM phosphate buffer pH 5, 65 °C, 30 min

T1 sequence (G9MXZ5 entry or part of it): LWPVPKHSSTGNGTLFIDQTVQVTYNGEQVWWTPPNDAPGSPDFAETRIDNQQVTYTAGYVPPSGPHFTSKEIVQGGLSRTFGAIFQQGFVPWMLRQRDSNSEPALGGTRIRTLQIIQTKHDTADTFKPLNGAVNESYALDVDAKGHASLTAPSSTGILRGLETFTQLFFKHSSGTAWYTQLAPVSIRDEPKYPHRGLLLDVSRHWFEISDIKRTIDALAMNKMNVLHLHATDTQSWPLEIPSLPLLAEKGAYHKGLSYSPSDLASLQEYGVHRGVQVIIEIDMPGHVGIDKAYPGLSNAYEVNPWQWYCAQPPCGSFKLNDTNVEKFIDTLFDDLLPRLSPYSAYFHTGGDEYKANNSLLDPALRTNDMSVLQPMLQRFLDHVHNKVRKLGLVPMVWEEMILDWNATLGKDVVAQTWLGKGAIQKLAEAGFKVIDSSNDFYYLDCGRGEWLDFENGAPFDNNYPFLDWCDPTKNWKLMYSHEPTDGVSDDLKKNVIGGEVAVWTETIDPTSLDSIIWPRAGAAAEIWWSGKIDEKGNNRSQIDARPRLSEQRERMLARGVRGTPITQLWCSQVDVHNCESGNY

Km: ~450 µM
Compound: CC(=O)N[C@H]1[C@H](Oc2ccc([N+](=O)[O-])cc2)O[C@H](CO)[C@@H](O)[C@@H]1O [pNP-NAG]

Reference: paper PMC9110600, “Purification, identification and characterization of Nag2 N-acetylglucosaminidase from Trichoderma virens strain mango” (Botanical Studies, 2022)
